Results on 19 compounds are retold here after US12024503B2, “Benzethers and anilines of pyrazolyl-amino-pyrimidinyl derivatives, and compositions and methods thereof” (LYNK PHARMACEUTICALS CO. LTD., priority 2019, dated 2024).

The pIC50 is the IC50 on a negative log10 scale, so that one unit is a factor of ten.

Holding throughout (type): biochemical
Assay [1] addresses T1, JAK1 (Homo sapiens, UniProt P23458).
T1 construct: purchased Carna Biosciences
Briefly: JAK1 microfluidic kinase assay (Caliper EZ Reader II, FAM labeled peptide substrate). To be noted: (5 nM), 1 mM ATP; Table 2; read-out: IC50 JAK1 (5 nM) (1 mM ATP). How it is done:
(§1) Compounds were tested against JAK1, JAK2, JAK2V617F and TYK2.
(§2) Assay Formats: JAK activity was determined in the reaction buffer 50 mM HEPES, 0.01% Brij35, 10 mMMgCl2, 2 mMDTT by a microfluidic assay. The phosphorylation of a FAM labeled peptide substrate was monitored in the Caliper EZ Reader II (Perkin Elmer). The assay condition for each batch of enzyme (Carna Biosciences) was optimized to obtain 10% conversion rate of peptide substrate.
(§3) The test compounds were dissolved in DMSO to a stock concentration of 10 mM. 3-fold serially diluted compounds with top concentration of 5 μM were pre-incubated with JAK1, JAK2, JAK2V617F or TYK2 for 10 min at ambient temperature. The final DMSO concentration of assay mixture was 1%. FAM labeled peptide substrate (final concentration […]) and ATP (1 mM concentration) were sequentially added to initiate the kinase reaction at 28° C. The reaction was stopped by adding 50 mMEDTA. The reaction time for JAK1, JAK2, JAK2V617F and TYK2 was 120 min, 20 min, 30 min and 10 min, respectively.
(§4) The well in the test plate without enzyme was defined as 100% inhibition. And the well without compound but with equivalent DMSO was defined as no inhibition. The percent inhibition was calculated by the following formula. % Inhibition=(Conversionmax−Conversionsample)/(Conversionmax−Conversionmin)*100Conversionmax means the conversion rate in the positive well without addition of compound Conversionmin means the conversion rate in the well without addition of enzyme Conversionsample means the conversion rate of test compounds
(§5) The dose-response (percent inhibition) curve was plotted and IC50 values were determined by GraphPad software.

Assay [2] deals with T2, JAK2V617F (Homo sapiens, UniProt O60674, V617F).
T2 construct: purchased Carna Biosciences
T2 sequence (O60674 whole entry V617F): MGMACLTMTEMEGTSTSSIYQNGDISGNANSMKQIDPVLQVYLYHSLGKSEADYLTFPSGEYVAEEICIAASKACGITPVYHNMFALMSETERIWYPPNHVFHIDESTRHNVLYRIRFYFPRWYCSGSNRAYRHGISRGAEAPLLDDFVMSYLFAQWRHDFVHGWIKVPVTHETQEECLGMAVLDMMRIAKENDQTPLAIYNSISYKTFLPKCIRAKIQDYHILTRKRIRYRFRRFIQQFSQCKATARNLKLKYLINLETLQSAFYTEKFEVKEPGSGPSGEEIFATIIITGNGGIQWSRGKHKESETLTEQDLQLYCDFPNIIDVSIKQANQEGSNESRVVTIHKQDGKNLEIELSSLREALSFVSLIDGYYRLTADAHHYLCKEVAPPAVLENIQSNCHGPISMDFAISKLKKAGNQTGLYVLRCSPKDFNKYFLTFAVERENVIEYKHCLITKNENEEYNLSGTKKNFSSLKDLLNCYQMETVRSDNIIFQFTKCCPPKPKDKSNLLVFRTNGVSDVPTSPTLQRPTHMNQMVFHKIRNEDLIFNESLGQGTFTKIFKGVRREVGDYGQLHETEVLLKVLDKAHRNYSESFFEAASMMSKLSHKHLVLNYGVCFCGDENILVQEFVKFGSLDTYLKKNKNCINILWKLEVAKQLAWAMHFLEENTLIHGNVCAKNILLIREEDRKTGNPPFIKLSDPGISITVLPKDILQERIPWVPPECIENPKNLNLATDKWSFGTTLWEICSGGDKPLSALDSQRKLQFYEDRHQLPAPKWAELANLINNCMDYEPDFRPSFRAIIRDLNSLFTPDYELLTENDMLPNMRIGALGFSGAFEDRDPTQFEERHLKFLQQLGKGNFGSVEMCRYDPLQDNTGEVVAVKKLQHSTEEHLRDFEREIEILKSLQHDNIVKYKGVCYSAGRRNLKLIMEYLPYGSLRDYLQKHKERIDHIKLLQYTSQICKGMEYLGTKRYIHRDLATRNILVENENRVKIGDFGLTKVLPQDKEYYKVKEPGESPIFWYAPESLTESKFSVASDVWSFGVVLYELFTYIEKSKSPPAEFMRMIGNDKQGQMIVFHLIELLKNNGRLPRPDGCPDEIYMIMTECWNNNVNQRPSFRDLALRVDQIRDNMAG
Briefly: JAK2V617F microfluidic kinase assay (Caliper EZ Reader II, FAM labeled peptide substrate). Conditions: (2.5 nM), 1 mM ATP; Table 2; read-out: IC50 J2V617F (2.5 nM) (1 mM ATP). Here is the method: as §1, §2, §3, §4, §5

Assay [3] concerns the target T3, TYK2 (Homo sapiens, UniProt P29597).
T3 construct: purchased Carna Biosciences
The assay can be described thus: TYK2 microfluidic kinase assay (Caliper EZ Reader II, FAM labeled peptide substrate). To be noted: (2.5 nM), 1 mM ATP; Table 2; read-out: IC50 TYK2 (2.5 nM) (1 mM ATP). How it is done: as §1, §2, §3, §4, §5

The target in assay [4] is T4, JAK2 (Homo sapiens, UniProt O60674).
T4 construct: purchased Carna Biosciences
T4 sequence (O60674 whole entry): as the sequence (O60674 whole entry V617F) above, with F617V counted along it
The assay can be described thus: JAK2 microfluidic kinase assay (Caliper EZ Reader II, FAM labeled peptide substrate). To be noted: (0.25 nM), 1 mM ATP; Table 2; read-out: IC50 JAK2 (0.25 nM) (1 mM ATP). Here is the method:
as §1, §2, §3, §4, §5

pIC50: −log10 of the molar value.

T1 sequence (P23458 whole entry): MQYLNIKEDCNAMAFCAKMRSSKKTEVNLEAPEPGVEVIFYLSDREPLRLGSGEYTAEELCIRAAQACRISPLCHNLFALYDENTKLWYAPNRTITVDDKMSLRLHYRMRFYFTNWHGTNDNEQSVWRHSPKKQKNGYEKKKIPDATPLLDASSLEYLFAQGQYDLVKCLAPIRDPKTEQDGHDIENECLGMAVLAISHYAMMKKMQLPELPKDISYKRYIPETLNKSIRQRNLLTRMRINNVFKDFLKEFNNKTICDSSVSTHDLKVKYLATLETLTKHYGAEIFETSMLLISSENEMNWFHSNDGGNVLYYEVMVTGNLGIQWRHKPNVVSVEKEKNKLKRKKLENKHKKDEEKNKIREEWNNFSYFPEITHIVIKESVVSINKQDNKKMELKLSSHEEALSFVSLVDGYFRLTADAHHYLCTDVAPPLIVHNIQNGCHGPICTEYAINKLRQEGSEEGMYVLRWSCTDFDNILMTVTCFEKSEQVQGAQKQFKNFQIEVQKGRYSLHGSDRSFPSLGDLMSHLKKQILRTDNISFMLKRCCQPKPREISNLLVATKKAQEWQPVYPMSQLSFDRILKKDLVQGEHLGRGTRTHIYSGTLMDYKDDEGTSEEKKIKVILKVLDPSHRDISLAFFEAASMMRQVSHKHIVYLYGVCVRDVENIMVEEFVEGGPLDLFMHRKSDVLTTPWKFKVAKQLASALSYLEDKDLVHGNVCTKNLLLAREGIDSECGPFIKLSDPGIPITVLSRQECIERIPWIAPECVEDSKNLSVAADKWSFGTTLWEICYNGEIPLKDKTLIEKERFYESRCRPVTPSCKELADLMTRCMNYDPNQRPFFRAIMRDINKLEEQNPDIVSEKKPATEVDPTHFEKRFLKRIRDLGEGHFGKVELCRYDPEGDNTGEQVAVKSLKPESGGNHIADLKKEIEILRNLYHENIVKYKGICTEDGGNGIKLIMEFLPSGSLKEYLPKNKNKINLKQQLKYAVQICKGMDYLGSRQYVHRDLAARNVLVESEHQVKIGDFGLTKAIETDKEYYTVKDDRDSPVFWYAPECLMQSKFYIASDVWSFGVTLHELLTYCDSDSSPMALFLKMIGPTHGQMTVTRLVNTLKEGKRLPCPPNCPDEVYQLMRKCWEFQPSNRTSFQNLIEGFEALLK
T3 sequence (P29597 whole entry): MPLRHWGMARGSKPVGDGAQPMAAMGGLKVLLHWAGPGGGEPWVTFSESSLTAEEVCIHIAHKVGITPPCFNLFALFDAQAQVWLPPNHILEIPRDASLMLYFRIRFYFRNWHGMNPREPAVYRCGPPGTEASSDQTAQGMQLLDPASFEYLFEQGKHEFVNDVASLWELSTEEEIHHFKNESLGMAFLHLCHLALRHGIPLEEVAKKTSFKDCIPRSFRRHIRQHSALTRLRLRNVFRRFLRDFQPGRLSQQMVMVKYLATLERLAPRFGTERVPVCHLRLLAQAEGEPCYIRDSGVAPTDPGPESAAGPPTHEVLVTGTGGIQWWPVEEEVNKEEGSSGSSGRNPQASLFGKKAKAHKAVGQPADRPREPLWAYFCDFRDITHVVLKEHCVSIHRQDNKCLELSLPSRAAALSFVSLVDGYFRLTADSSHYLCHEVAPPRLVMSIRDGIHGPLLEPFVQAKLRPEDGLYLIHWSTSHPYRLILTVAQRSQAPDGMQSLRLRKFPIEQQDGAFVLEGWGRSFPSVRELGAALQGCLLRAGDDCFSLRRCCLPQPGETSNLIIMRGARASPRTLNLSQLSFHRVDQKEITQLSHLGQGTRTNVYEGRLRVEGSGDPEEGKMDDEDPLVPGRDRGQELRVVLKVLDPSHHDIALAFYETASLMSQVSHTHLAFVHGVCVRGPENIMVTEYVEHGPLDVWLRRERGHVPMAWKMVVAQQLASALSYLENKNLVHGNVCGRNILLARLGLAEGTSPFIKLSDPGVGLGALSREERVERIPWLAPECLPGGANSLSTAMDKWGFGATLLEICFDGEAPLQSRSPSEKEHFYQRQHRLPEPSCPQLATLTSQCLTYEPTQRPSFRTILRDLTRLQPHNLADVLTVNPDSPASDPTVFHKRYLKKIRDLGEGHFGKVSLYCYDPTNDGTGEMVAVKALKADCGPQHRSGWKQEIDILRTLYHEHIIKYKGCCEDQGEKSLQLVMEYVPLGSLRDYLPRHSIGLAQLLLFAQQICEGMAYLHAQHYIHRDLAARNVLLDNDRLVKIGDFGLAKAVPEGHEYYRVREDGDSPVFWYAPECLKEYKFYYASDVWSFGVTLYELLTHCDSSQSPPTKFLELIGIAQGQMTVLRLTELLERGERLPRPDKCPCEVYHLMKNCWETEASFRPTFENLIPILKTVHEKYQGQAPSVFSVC

As to `Cc1cnc(Nc2cnn(C3CC3)c2)nc1-c1ccc(OCC2(C#N)CCC2)cc1` [Example 3, 1-((4-(2-((1-cyclopropyl-1H-pyrazol-4-yl)amino)-5-methylpyrimidin-4-yl)phenoxy)methyl)cyclobutane-carbonitrile], the pIC50 in assay [1] was 8.05; in assay [2], 7.55; in assay [3] it was 7.66.

For `Cc1cnc(Nc2cnn(C3CC3)c2)nc1-c1ccc(OCC2(C#N)CC2)c(F)c1` [Example 5, 1-((4-(2-((1-cyclopropyl-1H-pyrazol-4-yl)amino)-5-methylpyrimidin-4-yl)-2-fluorophenoxy)methyl)cyclopropane-carbonitrile], the pIC50 is 8.48 in assay [1], above 8.90 in assay [2] and 8.49 in assay [3].

For `Cc1cnc(Nc2cnn(C3CCOCC3)c2)nc1-c1ccc(OCC2(C#N)CC2)c(F)c1` [Example 6, 1-((2-fluoro-4-(5-methyl-2-((1-(tetrahydro-2H-pyran-4-yl)-1H-pyrazol-4-yl)amino)pyrimidin-4-yl)phenoxy)methyl)cyclopropane-carbonitrile], the negative-log IC50 (pIC50) in assay [1] is 8.13; in assay [2], above 8.90; in assay [3], above 8.90.

For `Cc1cnc(Nc2cnn(C3CCOCC3)c2)nc1-c1ccc(OCC(C)(C)C#N)c(F)c1` [Example 7, 3-(2-fluoro-4-(5-methyl-2-((1-(tetrahydro-2H-pyran-4-yl)-1H-pyrazol-4-yl)amino)pyrimidin-4-yl)phenoxy)-2,2-dimethylpropanenitrile], the pIC50 was above 8.60 in assay [1], above 8.90 in assay [2] and above 8.90 in assay [3].

As for `Cc1cnc(Nc2cnn(C3CC3)c2)nc1-c1ccc(OCC2(C#N)CC2)nc1` [Example 11, 1-(((5-(2-((l-cyclopropyl-1H-pyrazol-4-yl)amino)-5-methylpyrimidin-4-yl)pyridin-2-yl)oxy)methyl)cyclopropanecarbonitrile], the pIC50 is 7.19 in assay [1], 6.86 in assay [2] and 6.66 in assay [3].

Turning to `Cc1cnc(Nc2cnn(C)c2)nc1-c1ccc(OCCC#N)c(F)c1` [Example 12, 3-(2-fluoro-4-(5-methyl-2-((1-methyl-1H-pyrazol-4-yl)amino)pyrimidin-4-yl)phenoxy)propanenitrile], the pIC50 in assay [1] was 7.71; in assay [4], 7.49; in assay [3], 7.19.

Take `Cc1cnc(Nc2cnn(C3CCOCC3)c2)nc1-c1ccc(OCC2(C#N)CC2)nc1` [Example 14, 1-(((5-(5-methyl-2-((1-(tetrahydro-2H-pyran-4-yl)-1H-pyrazol-4-yl)amino)pyrimidin-4-yl)pyridin-2-yl)oxy)methyl)cyclopropanecarbonitrile]: the figures for the pIC50 in assay [1], in assay [2] and in assay [3] were 6.70, 6.79 and 6.45, respectively.

Take `Cc1cnc(Nc2cnn(C3CCN(C)CC3)c2)nc1-c1ccc(OCC(C)(C)C#N)c(F)c1` [Example 18, 3-(2-fluoro-4-(5-methyl-2-((1-(1-methylpiperidin-4-yl)-1H-pyrazol-4-yl)amino)pyrimidin-4-yl)phenoxy)-2,2-dimethylpropanenitrile]: the results for the pIC50 in assay [1], in assay [4] and in assay [3] were above 8.60, 9.37 and above 8.90, respectively.

With `Cc1cnc(Nc2cnn(C3CCN(C)CC3)c2)nc1-c1ccc(OCC2(C#N)CC2)c(F)c1` [Example 20, 1-((2-fluoro-4-(5-methyl-2-((1-(1-methylpiperidin-4-yl)-1H-pyrazol-4-yl)amino)pyrimidin-4-yl)phenoxy)methyl)cyclopropane-carbonitrile], the pIC50 in assay [1] is above 8.60; in assay [4], 9.60; in assay [3], above 8.90.

Turning to `Cn1cc(Nc2ncc(Cl)c(-c3ccc(OCC(C)(C)C#N)cc3)n2)cn1` [Example 29, 3-(4-(5-chloro-2-((1-methyl-1H-pyrazol-4-yl)amino)pyrimidin-4-yl)phenoxy)-2,2-dimethylpropanenitrile], the pIC50 in assay [1] was 7.85; in assay [4], 8.47; in assay [3], 7.38.

For `CC(C)(C#N)COc1ccc(-c2nc(Nc3cnn(C4CC4)c3)ncc2Cl)cc1` [Example 32, 3-(4-(5-chloro-2-((1-cyclopropyl-1H-pyrazol-4-yl)amino)pyrimidin-4-yl)phenoxy)-2,2-dimethylpropanenitrile], the pIC50 is 7.54 in assay [1], 9.05 in assay [4] and 6.97 in assay [3].

Take `Cc1cnc(Nc2cnn(C3CC3)c2)nc1-c1ccc(NCC(C)(C)C#N)c(F)c1` [Example 37, 3-((4-(2-((1-cyclopropyl-1H-pyrazol-4-yl)amino)-5-methylpyrimidin-4-yl)-2-fluorophenyl)amino)-2,2-dimethylpropanenitrile]: the results for the pIC50 in assay [1], in assay [4] and in assay [3] were 7.84, 9.13 and above 8.90, respectively.

`Cc1cnc(Nc2cnn(C)c2)nc1-c1ccc(OCC(C)(C)C#N)cc1` [Example 38, 2,2-dimethyl-3-(4-(5-methyl-2-((1-methyl-1H-pyrazol-4-yl)amino)pyrimidin-4-yl)phenoxy)propanenitrile]: the pIC50 in assay [1] was 8.13; in assay [4], 8.96; in assay [3], 8.58.

Regarding `Cc1cnc(Nc2cnn(C3CCNCC3)c2)nc1-c1ccc(OCC(C)(C)C#N)c(F)c1` [Example 39, 3-(2-fluoro-4-(5-methyl-2-((1-(piperidin-4-yl)-1H-pyrazol-4-yl)amino)pyrimidin-4-yl)phenoxy)-2,2-dimethylpropanenitrile], the pIC50 is above 8.60 in assay [1], 9.42 in assay [4] and above 8.90 in assay [3].

Turning to `Cc1cnc(Nc2cnn(C(C)C(F)(F)F)c2)nc1-c1ccc(OCC(C)(C)C#N)c(F)c1` (stereo not drawn) [Example 40, 3-(2-fluoro-4-(5-methyl-2-((1-(1,1,1-trifluoropropan-2-yl)-1H-pyrazol-4-yl)amino)pyrimidin-4-yl)phenoxy)-2,2-dimethylpropanenitrile], the negative logarithm of the IC50 (pIC50) in assay [1] was above 8.60; in assay [4], 9.18; in assay [3], 8.75.

As for `Cc1cnc(Nc2cnn(C)c2)nc1-c1ccc(OCCC#N)cc1` [Example 41, 3-(4-(5-methyl-2-((1-methyl-1H-pyrazol-4-yl)amino)pyrimidin-4-yl)phenoxy)propanenitrile], the pIC50 in assay [1] is 7.71; in assay [4], 7.49; in assay [3] it was 7.19.

For the compound `Cc1cnc(Nc2cnn(C3CC3)c2)nc1-c1ccc(NCC2(C#N)CC2)cc1` [Example 42, 1-(((4-(2-((1-cyclopropyl-1H-pyrazol-4-yl)amino)-5-methylpyrimidin-4-yl)phenyl)amino)methyl)cyclopropane carbonitrile], the pIC50 in assay [1] is 7.72; in assay [4] it was 7.56; in assay [3] it was 6.99.

For `Cc1cnc(Nc2cnn(C3CCN(C)CC3)c2)nc1-c1ccc(NCC2(C#N)CC2)cc1` [Example 43, 1-(((4-(5-methyl-2-((1-(1-methylpiperidin-4-yl)-1H-pyrazol-4-yl)amino)pyrimidin-4-yl)phenyl)amino)methyl)cyclopropane carbonitrile], the pIC50 is 7.57 in assay [1], 8.51 in assay [4] and 7.01 in assay [3].

Regarding `N#CC1(CNc2ccc(-c3nc(Nc4cnn(C5CCNCC5)c4)ncc3Cl)cc2)CC1` [Example 44, 1-(((4-(5-chloro-2-((1-(piperidin-4-yl)-1H-pyrazol-4-yl)amino)pyrimidin-4-yl)phenyl)amino)methyl)cyclopropane carbonitrile], the pIC50 is 7.45 in assay [1], 8.84 in assay [4] and 6.76 in assay [3].
